Activity and IC50 data for 6 compounds are collected here from ChEMBL document CHEMBL1142306, “Biflavonoids isolated from Selaginella tamariscina regulate the expression of matrix metalloproteinase in human skin fibroblasts” (Bioorg Med Chem, 2008).

Activity calls are given as the source filed them. No cut-off for these calls is given here.

For orientation: IC50 means the concentration needed to halve the response being measured.

The subject of assay [1] is Fibroblast. As to the kind of experiment: Inhibition of UVB irradiation-induced MMP1 production in human dermal fibroblasts at 5 uM after 48 hrs. The class given is functional, cell-based.
The test system of assay [2] is Fibroblast. The experiment in a line: Inhibition of UVB irradiation-induced MMP1 production in human dermal fibroblasts at 1.25 uM after 48 hrs. It is filed as functional, cell-based.
For assay [3], the system named is Fibroblast. As to the kind of experiment: Inhibition of UVB irradiation-induced MMP1 production in human dermal fibroblasts at 2.5 uM after 48 hrs. The class given is functional, cell-based.
Assay [4] deals with 72 kDa type IV collagenase (Homo sapiens) (UniProt P08253). As to the kind of experiment: Inhibition of MMP2 in UVB irradiated human dermal fibroblasts at <5 uM by zymography.
Chain of 72 kDa type IV collagenase (Homo sapiens) (P08253 110-660 limits assumed): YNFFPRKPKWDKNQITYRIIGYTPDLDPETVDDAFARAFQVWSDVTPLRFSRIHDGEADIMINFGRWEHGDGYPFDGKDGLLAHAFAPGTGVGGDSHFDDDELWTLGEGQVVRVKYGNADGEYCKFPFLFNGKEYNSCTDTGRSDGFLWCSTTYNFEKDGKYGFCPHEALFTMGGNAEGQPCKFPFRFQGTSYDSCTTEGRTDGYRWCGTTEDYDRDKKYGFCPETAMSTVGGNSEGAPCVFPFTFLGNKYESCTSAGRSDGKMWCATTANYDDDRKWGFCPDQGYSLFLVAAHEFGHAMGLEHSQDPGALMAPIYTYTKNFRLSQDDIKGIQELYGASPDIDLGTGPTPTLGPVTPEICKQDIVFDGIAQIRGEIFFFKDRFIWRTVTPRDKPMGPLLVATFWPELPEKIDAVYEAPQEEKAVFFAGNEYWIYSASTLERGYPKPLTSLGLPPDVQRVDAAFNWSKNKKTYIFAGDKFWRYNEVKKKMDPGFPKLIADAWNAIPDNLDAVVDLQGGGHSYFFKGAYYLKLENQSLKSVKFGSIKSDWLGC
The subject of assay [5] is Fibroblast. As to the kind of experiment: Growth inhibition of UVB irradiated human dermal fibroblasts at 5 uM. The class given is functional, cell-based.
Assay [6] relates to Fibroblast. The experiment in a line: Decrease in protein content in UVB irradiated human dermal fibroblasts at 5 uM relative to control. The class given is functional. The arrangement: scale not given: the % may be the effect or the level left.
The subject of assay [7] is Fibroblast. The experiment in a line: Decrease in cell viability of UVB irradiated human dermal fibroblasts at 5 uM. It is filed as functional.
Assay [8] has as its system Fibroblast. The experiment in a line: Inhibition of UVB irradiation-induced MMP1 production in human dermal fibroblasts at 20 uM after 48 hrs. The class given is functional, cell-based.
Assay [9] relates to Fibroblast. As to the kind of experiment: Inhibition of UVB irradiation-induced MMP1 production in human dermal fibroblasts at 10 uM after 48 hrs. The class given is functional, cell-based.
Assay [10] deals with Fibroblast. The experiment in a line: Growth inhibition of UVB irradiated human dermal fibroblasts at 20 uM. It is filed as functional, cell-based.
The subject of assay [11] is Fibroblast. As to the kind of experiment: Decrease in protein content in UVB irradiated human dermal fibroblasts at 20 uM relative to control. The class given is functional. The arrangement: scale not given: the % may be the effect or the level left.
The test system of assay [12] is Fibroblast. As to the kind of experiment: Decrease in cell viability of UVB irradiated human dermal fibroblasts at 20 uM. It is filed as functional.
Assay [13] has as its system Fibroblast. The experiment in a line: Inhibition of UVB irradiation-induced MMP1 production in human dermal fibroblasts after 48 hrs. It is filed as functional, cell-based. The note with it: for IC50: light or radiation study.

Take `O=c1cc(-c2ccc(O)c(-c3c(O)cc4oc(-c5ccc(O)cc5)cc(=O)c4c3O)c2)oc2cc(O)cc(O)c12`: the outcome (in the assay on Fibroblast [1]; in the assay with Fibroblast [2]; with Fibroblast [3]; in assay [4]) was inactive.

Regarding `O=c1cc(-c2ccc(O)cc2-c2c(O)cc(O)c3c(=O)cc(-c4ccc(O)cc4)oc23)oc2cc(O)cc(O)c12`, the outcome in the assay with Fibroblast [1] and in the assay with Fibroblast [5] was Active. The result (with Fibroblast [2]; in the assay on Fibroblast [3]; in [4]) was inactive. The Activity with Fibroblast [6] and in the assay on Fibroblast [7] was 50% each time.

For the compound `O=c1cc(-c2ccc(O)c(-c3c(-c4ccc(O)cc4)oc4cc(O)cc(O)c4c3=O)c2)oc2cc(O)cc(O)c12` [TAIWANIAFLAVONE], the result (in the assay with Fibroblast [1]; in the assay with Fibroblast [9]; in assay [4]) was inactive. Moreover, the result with Fibroblast [8] and in the assay on Fibroblast [10] was Active. Besides, the Activity in the assay with Fibroblast [11] and in the assay on Fibroblast [12] was 50% throughout.

For the compound `CC1=C(/C=C/C(C)=C/C=C/C(C)=C/C(=O)O)C(C)(C)CCC1` [TRETINOIN], it took 10000 nM to reach half-maximal inhibition with Fibroblast [13] (IC50).

Turning to `O=c1cc(-c2ccc(O)c(-c3c(O)c(O)c(O)c4c(=O)cc(-c5ccc(O)cc5)oc34)c2)oc2cc(O)cc(O)c12` [SUMAFLAVONE], the outcome in the assay on Fibroblast [1] and in the assay on Fibroblast [5] was Active. In addition, the Activity was 50% in the assay with Fibroblast [6], “Dose-dependent effect” in the assay with Fibroblast [13] and 50% in the assay on Fibroblast [7]. Further, the half-inhibitory concentration (IC50) in the assay on Fibroblast [13] was 780 nM. Further, the result in assay [4] was inactive.

Turning to `O=c1cc(-c2ccc(O)c(-c3c(O)cc(O)c4c(=O)cc(-c5ccc(O)cc5)oc34)c2)oc2cc(O)cc(O)c12` [AMENTOFLAVONE], the result in the assay with Fibroblast [1] was Active. In the assay on Fibroblast [13], the Activity entry is “Dose-dependent effect” and the half-maximal inhibitory concentration (IC50) amounted to 1800 nM. Also, in [4], the outcome was inactive.
